Data: patent publication US20260165954A1, “BIO[…]-AND-RESERVOIR SYSTEM FOR THE PULSED DELIVERY OF BIOACTIVE AGENTS” (University of Mississippi, priority 2022, published 2026)

Tests used:
[1] = Pharmacokinetics of DOI from subcutaneously implanted single-layered CAPP films; assay type: in vivo; details: CD-1 mice
Text: (§1) FIGS. 12A-12G show in vivo delivery of 5HT2A agonist DOI from single- and multi-layer CAPP films. (FIG. 12A) In vitro cumulative release of DOI from 0.1 mm CAPP films. (FIG. 12B) Scheme of subcutaneous implantation of 0.1 mm DOI-loaded CAPP films and experimental time course. Pharmacokinetics of DOI released from subcutaneously implanted, single-layered CAPP films in (FIG. 12C) plasma (n=4) and (FIG. 12D) brain (n=4). (FIG. 12E) Scheme of subcutaneous implantation of multilayered CAPP films and experimental time course. Pharmacokinetics of DOI released from multilayered CAPP films in (FIG. 12F) plasma (n=4), and (FIG. 12G) brain (n=4).
(§2) To confirm that 5HT2A agonists could be effectively delivered in vivo from an implantable drug delivery system, the encapsulation and release of DOI (2,5-dimethoxy-4-iodoamphetamine) from CAPP films was investigated. DOI release was first observed from single-layered CAPP films. […] The DOI-loaded, single-layered films were next implanted subcutaneously in CD-1 mice (50:50 M:F mice) and monitored the pharmacokinetics and biodistribution of DOI after implantation (FIGS. 12B-12D). […] After this initial optimization, multilayered CAPP films with DOI encapsulated in the ‘release’ layers were generated and implanted them subcutaneously in CD-1 mice (50:50 M:F mice; FIG. 12E). […]

[2] = Pharmacokinetics of DOI from subcutaneously implanted multilayered CAPP films; assay type: in vivo; details: subcutaneous multilayered CAPP films, CD-1 mice
Text: as §1, §2

[3] = In vitro release of DOI from single-layered CAPP films; assay type: physicochemical; details: 0.1 mm single-layered CAPP films; FIG. 12A
Text: as §1, §2

## COc1cc(CC(C)N)c(OC)cc1I (centres unmarked) [DOI, 2,5-dimethoxy-4-iodoamphetamine]
[1]; subcutaneous 0.1 mm DOI-loaded single-layered CAPP films, plasma, FIG. 12C
  time of peak plasma concentration post-implantation: 2 h
[1]; subcutaneous single-layered CAPP films, brain, FIG. 12D
  brain distribution and clearance: rapidly accumulated in the brain after which it was cleared with similar kinetics to the blood plasma
[2]
  absorption and tissue accumulation from the first 'release' layer: rapid absorption of DOI and accumulation in the brain (as well as kidneys and liver)
[2]; FIGS. 12F-12G
  time of second pulse in plasma and organs after the first pulse: ~20 h
[3]
  in vitro release kinetics: closely mimicked that of rhodamine and FITC
